Source: patent US20080009479A1, “Tetrahydrobenzazepines as Histamine H3 Receptor Ligands” (GLAXO GROUP LIMITED, priority 2004, published 2008)

Tests used:
[1] = molecular target: T1, human histamine H3 receptor (Homo sapiens, UniProt Q9Y5N1); assay: Histamine H3 functional antagonist assay (method C); type: biochemical; conditions: [35S]GTPγS LeadSeeker SPA, CHO membranes, histamine at EC80, 384 well, compound in DMSO; read-out: antagonism pKb, histamine H3 functional antagonist assay (method C) (converted)
T1 construct: expressed in transfected cells; host or cells: CHO K1 cells carrying the pSwitch regulatory plasmid, transfected with pGeneH3 and induced with mifepristone; clone 3H3; membranes prepared from these cells
Excerpt: (§1) A membrane preparation containing histamine H3 receptors may be prepared in accordance with the following procedures:
(§2) DNA encoding the human histamine H3 gene (Huvar, A. et al. (1999) Mol. Pharmacol. 55(6), 1101-1107) was cloned into a holding vector, pCDNA3.1 TOPO (InVitrogen) and its cDNA was isolated from this vector by restriction digestion of plasmid DNA with the enzymes BamH1 and Not-1 and ligated into the inducible expression vector pGene (InVitrogen) digested with the same enzymes. The GeneSwitch™ system (a system where in transgene expression is switched off in the absence of an inducer and switched on in the presence of an inducer) was performed as described in U.S. Pat. Nos. 5,364,791; 5,874,534; and 5,935,934. […]
(§3) 10-14 days post selection 10 nM Mifepristone (InVitrogen), was added to the culture medium to induce the expression of the receptor. […] Receptor bound antibody was detected by incubation of the cells for 60 minutes on ice with a goat anti rabbit antibody, conjugated with Alexa 488 fluorescence marker (Molecular Probes). Following two further washes with Sorting Medium, cells were filtered through a 50 μm Filcon™ (BD Biosciences) and then analysed on a FACS Vantage SE Flow Cytometer fitted with an Automatic Cell Deposition Unit. […]

[2] = molecular target: T1, human histamine H3 receptor; assay: Histamine H3 functional antagonist assay (method B); type: biochemical; conditions: [35S]GTPγS LeadSeeker SPA, CHO membranes, histamine at EC80, 384 well; read-out: antagonism pKb, histamine H3 functional antagonist assay (method B) (converted)
Excerpt: as §1
DNA encoding the human histamine H3 gene (Huvar, A. et al. (1999) Mol. Pharmacol. 55(6), 1101-1107) was cloned into a holding vector, pCDNA3.1 TOPO (InVitrogen) and its cDNA was isolated from this vector by restriction digestion of plasmid DNA with the enzymes BamH1 and Not-1 and ligated into the inducible expression vector pGene (InVitrogen) digested with the same enzymes. The GeneSwitch™ system (a system where in transgene expression is switched off in the absence of an inducer and switched on in the presence of an inducer) was performed as described in U.S. Pat. Nos. 5,364,791; 5,874,534; and 5,935,934. Ligated DNA was transformed into competent DH5α E. coli host bacterial cells and plated onto Luria Broth (LB) agar containing Zeocin™ (an antibiotic which allows the selection of cells expressing the sh ble gene which is present on pGene and pSwitch) at 50 μg ml^−1. Colonies containing the re-ligated plasmid were identified by restriction analysis. DNA for transfection into mammalian cells was prepared from 250 ml cultures of the host bacterium containing the pGeneH3 plasmid and isolated using a DNA preparation kit (Qiagen Midi-Prep) as per manufacturers guidelines (Qiagen). […]
as §3

human H1 receptor = molecular target: T2, human H1 receptor (Homo sapiens, UniProt P35367); assay: Histamine H1 functional antagonist assay (method A); type: cell-based; conditions: FLIPR, FLUO4AM, suppression of histamine induced increase in fluorescence; read-out: antagonism pKb, histamine H1 functional antagonist assay (method A) (converted)
T2 construct: expressed in transfected cells; host or cells: Chinese hamster ovary cells stably expressing the human H1 receptor
Procedure: A histamine H1 cell line may be generated in accordance with the following procedure:
The human H1 receptor was cloned using known procedures described in the literature [Biochem. Biophys. Res. Commun. 1994, 201(2), 894]. Chinese hamster ovary cells stably expressing the human H1 receptor were generated according to known procedures described in the literature [Br. J. Pharmacol. 1996, 117(6), 1071].
(IV) Histamine H1 Functional Antagonist Assay (Method A)
The compound is assayed in a black walled clear bottom 384-well plate with cells seeded at 10000 cells/well. Tyrodes buffer is used throughout (NaCl 145 mM, KCl 2.5 mM, HEPES 10 mM, glucose 10 mM, MgCl2 1.2 mM, CaCl2 1.5 mM, probenecid 2.5 mM, pH adjusted to 7.40 with NaOH 1.0 M). Each well is treated with 10 μl of a solution of FLUO4AM (10 μM in Tyrodes buffer at pH 7.40) and plates are then incubated for 60 minutes at 37° C. Wells are then washed with Tyrodes buffer using a EMBLA cell washer system, leaving 40 μl buffer in each well, and then treated with 10 μl of test compound in Tyrodes buffer. […]
Functional antagonism is indicated by a suppression of histamine induced increase in fluorescence, as measured by the FLIPR system (Molecular Devices). By means of concentration effect curves, functional potencies are determined using standard pharmacological mathematical analysis.

[3] = molecular target: T1, human histamine H3 receptor; assay: Histamine H3 functional antagonist assay (method A); type: biochemical; conditions: [35S]GTPγS SPA, CHO membranes, histamine 0.3 μM, 96 well
Excerpt: as §1, §2, §3

T1 sequence (Q9Y5N1 whole entry): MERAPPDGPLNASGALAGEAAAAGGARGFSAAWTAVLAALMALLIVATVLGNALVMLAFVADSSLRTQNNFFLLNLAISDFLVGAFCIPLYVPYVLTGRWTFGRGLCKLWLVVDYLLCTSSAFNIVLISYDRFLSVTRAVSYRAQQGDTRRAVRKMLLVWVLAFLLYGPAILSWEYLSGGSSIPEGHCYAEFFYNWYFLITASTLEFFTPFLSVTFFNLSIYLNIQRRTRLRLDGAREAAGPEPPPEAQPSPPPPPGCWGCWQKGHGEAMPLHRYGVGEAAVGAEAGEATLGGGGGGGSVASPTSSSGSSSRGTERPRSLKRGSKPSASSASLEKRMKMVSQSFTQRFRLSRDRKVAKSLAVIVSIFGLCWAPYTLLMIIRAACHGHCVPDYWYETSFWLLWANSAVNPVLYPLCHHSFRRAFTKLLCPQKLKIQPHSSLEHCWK
T2 sequence (P35367 whole entry): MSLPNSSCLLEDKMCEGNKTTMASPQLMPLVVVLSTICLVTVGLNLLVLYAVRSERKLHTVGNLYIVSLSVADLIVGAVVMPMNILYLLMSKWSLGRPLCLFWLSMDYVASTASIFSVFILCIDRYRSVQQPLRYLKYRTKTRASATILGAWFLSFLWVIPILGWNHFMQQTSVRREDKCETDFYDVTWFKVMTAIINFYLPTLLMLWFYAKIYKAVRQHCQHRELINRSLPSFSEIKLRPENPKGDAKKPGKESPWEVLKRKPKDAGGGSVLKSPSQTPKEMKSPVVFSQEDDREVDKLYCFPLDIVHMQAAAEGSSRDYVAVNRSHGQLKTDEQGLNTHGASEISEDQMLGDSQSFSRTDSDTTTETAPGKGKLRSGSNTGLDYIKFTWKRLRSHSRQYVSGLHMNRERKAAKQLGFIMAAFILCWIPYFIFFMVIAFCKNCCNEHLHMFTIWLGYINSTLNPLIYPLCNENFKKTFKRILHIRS

Row | Compound | Kb [1] | Kb [2] | also measured
1 | O=C1CCCN1c1cnc(Oc2ccc3c(c2)CCN(CC2CC2)CC3)cn1 [Example E1, 1-(5-{[3-(Cyclopropylmethyl)-2,3,4,5-tetrahydro-1H-3-benzazepin-7-yl]oxy}-2-pyrazinyl)-2-pyrrolidinone] | < 1 nM | < 1 nM | –
2 | O=C1CCCN1c1ccc(Oc2ccc3c(c2)CCN(CC2CC2)CC3)nc1 [Example E13, 1-(6-{[3-(Cyclopropylmethyl)-2,3,4,5-tetrahydro-1H-3-benzazepin-7-yl]oxy}-3-pyridinyl)-2-pyrrolidinone] | – | < 1 nM | –
3 | CCN1CCc2ccc(Oc3ccc(N4CCCC4=O)cn3)cc2CC1 [Example E14, 1-{6-[(3-Ethyl-2,3,4,5-tetrahydro-1H-3-benzazepin-7-yl)oxy]-3-pyridinyl}-2-pyrrolidinone] | – | < 1 nM | –
4 | CCC(C)N1CCc2ccc(Oc3ccc(N4CCCC4=O)cn3)cc2CC1 (centres unmarked) [Example E15, 1-(6-{[3-(1-Methylpropyl)-2,3,4,5-tetrahydro-1H-3-benzazepin-7-yl]oxy}-3-pyridinyl)-2-pyrrolidinone] | < 1 nM | – | –
5 | c1ccc(COc2ccc3c(c2)CCN(CC2CC2)CC3)cc1 [Example E19, 3-(Cyclopropylmethyl)-7-[(phenylmethyl)oxy]-2,3,4,5-tetrahydro-1H-3-benzazepine] | – | – | Kb (human H1 receptor): > 316 nM; Kb ([3]; antagonism pKb, histamine H3 functional antagonist assay (method A)): < 10 nM
6 | c1cc2c(cc1OCCCC1CCCCC1)CCN(CC1CC1)CC2 [Example E20, 7-[(3-Cyclohexylpropyl)oxy]-3-(cyclopropylmethyl)-2,3,4,5-tetrahydro-1H-3-benzazepine] | – | – | Kb ([3]; read-out: antagonism pKb, histamine H3 functional antagonist assay (method A) (converted)): < 100 nM
